Laboratory results from US6355799B1, “Substituted benzene compounds, process for their preparation, and herbicidal and defoliant compositions containing them” (ISK Americas Incorporated, priority 1997, dated 2002).

Assays:
Format in all cases: in vivo
[1] = system: upland rice (Oryza sp., var. Tebonnet, RICE); test: Post-emerge test, crop safety; conditions: post-emerge, 14 days after application, rating scale 0-100
Summary of the method: (§1)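 Visual ratings on a 0-100 scale (0 no damage, 100 all plants dead) were taken at 14 days after treatment. Rates of 15-1000 g ai/ha in acetone, 187 l/ha, were sprayed onto soil one day after planting (pre-emerge) or onto 2-3 leaf plants with 0.25% v/v surfactant (post-emerge).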

[2] = system: field corn (Zea mays L., var. Dekalb 535, CORN); test: Post-emerge test, crop safety; conditions: post-emerge, 14 days after application, rating scale 0-100
Summary of the method: as §1

[3] = system: redroot pigweed (Amaranthus retroflexus, AMARE); test: Pre-emerge test, greenhouse herbicide activity screening; conditions: pre-emerge, 14 days after application, scale 0-100
Summary of the method: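 Compounds in acetone were track-sprayed at 187 l/ha, 15–1000 g ai/ha, onto sandy loam pots. Pre-emerge seeds were sown one day before spraying, with surface watering afterwards. Post-emerge plants were at the 2–3 leaf stage and sprayed with 0.25% v/v non-ionic surfactant. Injury was rated 0–100 at 14 days.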

[4] = system: large crabgrass (Digitaria sanguinalis, DIGSA); test: as above; conditions: pre-emerge, 14 days after application, scale 0-100
Summary of the method: as §1

[5] = system: lambsquarters (Chenopodium album, CHEAL); test: as above; conditions: pre-emerge, 14 days after application, scale 0-100
Summary of the method: as §1

[6] = system: green foxtail (Setaria viridis, SETVI); test: as above; conditions: pre-emerge, 14 days after application, scale 0-100
Summary of the method: as §1

[7] = system: sicklepod (Cassia obtusifolia, CASOB); test: as above; conditions: pre-emerge, 14 days after application, scale 0-100
Summary of the method: as §1

[8] = system: johnsongrass (Sorghum halepense, SORHA); test: as above; conditions: pre-emerge, 14 days after application, scale 0-100
Summary of the method: as §1

[9] = system: barnyardgrass (Echinochloa crus-galli, ECHCG); test: as above; conditions: pre-emerge, 14 days after application, scale 0-100
Summary of the method: as §1

[10] = system: ivyleaf morningglory (Ipomoea hederacea, IPOHE); test: as above; conditions: pre-emerge, 14 days after application, scale 0-100
Summary of the method: as §1

[11] = system: velvetleaf (Abutilon theophrasti, ABUTH); test: as above; conditions: pre-emerge, 14 days after application, scale 0-100
Summary of the method: as §1

[12] = system: upland rice (Oryza sp., var. Tebonnet, RICE); test: Pre-emerge test, crop safety; conditions: pre-emerge, 14 days after application, scale 0-100
Summary of the method: (§2)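 Fourteen days after spraying, crop and weed injury was graded visually from 0, no effect, to 100, every plant dead. Test substances were dissolved in acetone and applied at 15–1000 g ai/ha with a flat-fan nozzle. Application was either pre-emergence, one day after sowing, or post-emergence at the 2–3 leaf stage.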

[13] = system: field corn (Zea mays L., var. Dekalb 535, CORN); test: Pre-emerge test, crop safety; conditions: pre-emerge, 14 days after application, scale 0-100
Summary of the method: as §2

[14] = system: large crabgrass (Digitaria sanguinalis, DIGSA); test: Post-emerge test, greenhouse herbicide activity screening; conditions: post-emerge, 14 days after application, rating scale 0-100
Summary of the method: as §1

[15] = system: lambsquarters (Chenopodium album, CHEAL); test: as above; conditions: post-emerge, 14 days after application, rating scale 0-100
Summary of the method: as §1

[16] = system: green foxtail (Setaria viridis, SETVI); test: as above; conditions: post-emerge, 14 days after application, rating scale 0-100
Summary of the method: as §1

[17] = system: sicklepod (Cassia obtusifolia, CASOB); test: as above; conditions: post-emerge, 14 days after application, rating scale 0-100
Summary of the method: as §1

[18] = system: johnsongrass (Sorghum halepense, SORHA); test: as above; conditions: post-emerge, 14 days after application, rating scale 0-100
Summary of the method: as §1

[19] = system: barnyardgrass (Echinochloa crus-galli, ECHCG); test: as above; conditions: post-emerge, 14 days after application, rating scale 0-100
Summary of the method: as §1

[20] = system: redroot pigweed (Amaranthus retroflexus, AMARE); test: as above; conditions: post-emerge, 14 days after application, rating scale 0-100
Summary of the method: as §1

[21] = system: ivyleaf morningglory (Ipomoea hederacea, IPOHE); test: as above; conditions: post-emerge, 14 days after application, rating scale 0-100
Summary of the method: as §1

[22] = system: common ragweed (Ambrosia artemisizfolia L., AMBEL); test: as above; conditions: post-emerge, 14 days after application, rating scale 0-100
Summary of the method: as §1

[23] = system: velvetleaf (Abutilon theophrasti, ABUTH); test: as above; conditions: post-emerge, 14 days after application, rating scale 0-100
Summary of the method: as §1

COc1c(Cl)cc(F)c(-n2c(=O)cc(C(F)(F)F)n(C)c2=O)c1NC(=O)c1ccc2cccc(F)c2c1 [2-161]
100: phytotoxicity rating AMARE ([3]; 63 g ai/ha) | phytotoxicity rating AMARE ([3]; 250 g ai/ha) | phytotoxicity rating DIGSA ([4]; 250 g ai/ha) | phytotoxicity rating CHEAL ([5]; 63 g ai/ha) | phytotoxicity rating CHEAL ([5]; 250 g ai/ha) | phytotoxicity rating SETVI ([6]; 63 g ai/ha) | phytotoxicity rating SETVI ([6]; 250 g ai/ha) | phytotoxicity rating ABUTH ([11]; 63 g ai/ha) | phytotoxicity rating ABUTH ([11]; 250 g ai/ha) | CHEAL phytotoxicity rating ([15]; 63 g ai/ha) | CHEAL phytotoxicity rating ([15]; 250 g ai/ha) | CASOB phytotoxicity rating ([17]; 63 g ai/ha) | CASOB phytotoxicity rating ([17]; 250 g ai/ha) | AMARE phytotoxicity rating ([20]; 63 g ai/ha) | AMARE phytotoxicity rating ([20]; 250 g ai/ha) | IPOHE phytotoxicity rating ([21]; 63 g ai/ha) | IPOHE phytotoxicity rating ([21]; 250 g ai/ha) | AMBEL phytotoxicity rating ([22]; 250 g ai/ha) | ABUTH phytotoxicity rating ([23]; 63 g ai/ha) | ABUTH phytotoxicity rating ([23]; 250 g ai/ha)
95: phytotoxicity rating DIGSA ([4]; 63 g ai/ha)
70: RICE phytotoxicity rating (crop damage) ([1]; 250 g ai/ha)
20: RICE phytotoxicity rating (crop damage) ([1]; 63 g ai/ha) | CORN phytotoxicity rating (crop damage) ([2]; 250 g ai/ha) | phytotoxicity rating IPOHE ([10]; 63 g ai/ha) | SETVI phytotoxicity rating ([16]; 250 g ai/ha) | ECHCG phytotoxicity rating ([19]; 63 g ai/ha)
50: phytotoxicity rating CASOB ([7]; 250 g ai/ha) | DIGSA phytotoxicity rating ([14]; 250 g ai/ha)
30: phytotoxicity rating SORHA ([8]; 250 g ai/ha) | SORHA phytotoxicity rating ([18]; 250 g ai/ha) | AMBEL phytotoxicity rating ([22]; 63 g ai/ha)
60: ECHCG phytotoxicity rating ([19]; 250 g ai/ha)
90: phytotoxicity rating ECHCG ([9]; 63 g ai/ha) | phytotoxicity rating IPOHE ([10]; 250 g ai/ha)
99: phytotoxicity rating ECHCG ([9]; 250 g ai/ha)
40: phytotoxicity rating RICE (crop damage) ([12]; 250 g ai/ha)
0: CORN phytotoxicity rating (crop damage) ([2]; 63 g ai/ha) | phytotoxicity rating CASOB ([7]; 63 g ai/ha) | phytotoxicity rating SORHA ([8]; 63 g ai/ha) | phytotoxicity rating RICE (crop damage) ([12]; 63 g ai/ha) | phytotoxicity rating CORN (crop damage) ([13]; 63 g ai/ha) | phytotoxicity rating CORN (crop damage) ([13]; 250 g ai/ha) | DIGSA phytotoxicity rating ([14]; 63 g ai/ha) | SETVI phytotoxicity rating ([16]; 63 g ai/ha) | SORHA phytotoxicity rating ([18]; 63 g ai/ha)

CCSCC(=O)Nc1c(OC)c(Cl)cc(F)c1-n1c(=O)cc(C(F)(F)F)n(C)c1=O [2-172]
30: phytotoxicity rating CHEAL ([5]; 63 g ai/ha) | AMBEL phytotoxicity rating ([22]; 63 g ai/ha)
80: phytotoxicity rating CASOB ([7]; 250 g ai/ha) | AMBEL phytotoxicity rating ([22]; 250 g ai/ha)
0: RICE phytotoxicity rating (crop damage) ([1]; 63 g ai/ha) | phytotoxicity rating SORHA ([8]; 63 g ai/ha) | phytotoxicity rating ECHCG ([9]; 63 g ai/ha) | phytotoxicity rating CORN (crop damage) ([13]; 63 g ai/ha) | DIGSA phytotoxicity rating ([14]; 63 g ai/ha) | DIGSA phytotoxicity rating ([14]; 250 g ai/ha) | SETVI phytotoxicity rating ([16]; 63 g ai/ha) | SORHA phytotoxicity rating ([18]; 63 g ai/ha) | SORHA phytotoxicity rating ([18]; 250 g ai/ha) | ECHCG phytotoxicity rating ([19]; 63 g ai/ha) | ECHCG phytotoxicity rating ([19]; 250 g ai/ha)
40: phytotoxicity rating SORHA ([8]; 250 g ai/ha)
90: phytotoxicity rating ABUTH ([11]; 63 g ai/ha) | CASOB phytotoxicity rating ([17]; 250 g ai/ha) | IPOHE phytotoxicity rating ([21]; 63 g ai/ha)
65: phytotoxicity rating SETVI ([6]; 250 g ai/ha)
35: CHEAL phytotoxicity rating ([15]; 63 g ai/ha)
20: phytotoxicity rating DIGSA ([4]; 63 g ai/ha) | phytotoxicity rating SETVI ([6]; 63 g ai/ha) | phytotoxicity rating CASOB ([7]; 63 g ai/ha)
60: phytotoxicity rating ECHCG ([9]; 250 g ai/ha) | phytotoxicity rating IPOHE ([10]; 63 g ai/ha) | CHEAL phytotoxicity rating ([15]; 250 g ai/ha) | AMARE phytotoxicity rating ([20]; 63 g ai/ha) | AMARE phytotoxicity rating ([20]; 250 g ai/ha) | ABUTH phytotoxicity rating ([23]; 63 g ai/ha)
10: RICE phytotoxicity rating (crop damage) ([1]; 250 g ai/ha) | CORN phytotoxicity rating (crop damage) ([2]; 250 g ai/ha) | phytotoxicity rating RICE (crop damage) ([12]; 63 g ai/ha) | phytotoxicity rating CORN (crop damage) ([13]; 250 g ai/ha) | SETVI phytotoxicity rating ([16]; 250 g ai/ha)
70: phytotoxicity rating AMARE ([3]; 63 g ai/ha)
50: phytotoxicity rating RICE (crop damage) ([12]; 250 g ai/ha) | CASOB phytotoxicity rating ([17]; 63 g ai/ha)
5: CORN phytotoxicity rating (crop damage) ([2]; 63 g ai/ha)
100: phytotoxicity rating AMARE ([3]; 250 g ai/ha) | phytotoxicity rating DIGSA ([4]; 250 g ai/ha) | phytotoxicity rating CHEAL ([5]; 250 g ai/ha) | phytotoxicity rating ABUTH ([11]; 250 g ai/ha) | IPOHE phytotoxicity rating ([21]; 250 g ai/ha) | ABUTH phytotoxicity rating ([23]; 250 g ai/ha)
95: phytotoxicity rating IPOHE ([10]; 250 g ai/ha)
